# pIC50: −log10 of the molar value. Where two headings read alike, the source gives them in different places.
# What was measured:
# [1] = system: 3D7-MR4 trophozoite parasite-infected RBCs; conditions: 10 × IC50^72h; ref Allman et al., 2016; cited from earlier work
# [2] = system: asynchronous 3D7-A10 parasite cultures; experiment: Standard 72-h exposure asexual blood stage susceptibility assay (IC50^72h); assay type: cell-based, Plasmodium falciparum; conditions: Plasmodium falciparum, 3D7, 72 h, read-out: Overall (72hr assay) Mean IC50 (IC50^72h)
# [3] = system: Plasmodium falciparum 3D7-A10 parasites; experiment: Stage specificity assay (8-h exposure of synchronized stages, IC50^8h); assay type: cell-based; conditions: for pIC50: Plasmodium falciparum
# [4] = system: 3D7-MR4 trophozoite parasite-infected RBCs; experiment: Metabolomic profiling (hydrophilic metabolite changes, UHPLC-MS); assay type: cell-based, Plasmodium falciparum
compound,measurement,setting,value
"CCN(CC)CCCC(C)Nc1ccnc2cc(Cl)ccc12 (stereo not drawn) [Chloroquine, reference compound]","increased levels of dAMP, dUTP, cytidine, xanthosine, and N-acetyl-lysine",[1],> 2 fold
same,peptide levels (hemoglobin catabolism signature),[1],more modest decrease in peptide levels
same,pIC50,[2],8.23
same,pIC50,"[3]; 3D7, read-out: Early rings Mean IC50 (IC50^8h)",7.75
same,pIC50,"[3]; 3D7, read-out: Early trophozoites Mean IC50 (IC50^8h)",7.76
same,pIC50,"[3]; 3D7, read-out: IC50^8h values",> 6.52
same,pIC50,"[3]; 3D7, read-out: Late rings Mean IC50 (IC50^8h)",7.73
same,pIC50,"[3]; 3D7, read-out: Late trophozoites Mean IC50 (IC50^8h)",7.52
same,pIC50,"[3]; 3D7, read-out: Schizonts Mean IC50 (IC50^8h)",7.22
FC(F)(F)c1ccc(Nc2cc3[nH]c(-c4cccc(C(F)(F)F)c4)nc3cn2)nc1 [MMV675939],changes within the set of metabolites detected (low fold change group),"[4]; 10 × IC50^72h, 2.5 hr, trophozoites",did not induce major changes
same,Log2(fold changes) 3-phosphoglycerate,"[4]; metabolite 3-phosphoglycerate, log2 fold change",-0.0740
same,Log2(fold changes) 4-Pyridoxic acid,"[4]; metabolite 4-Pyridoxic acid, log2 fold change",0.0934
same,Log2(fold changes) 4-aminobutyrate,"[4]; metabolite 4-aminobutyrate, log2 fold change",-0.0838
same,Log2(fold changes) 4-phosphopantetheine,"[4]; metabolite 4-phosphopantetheine, log2 fold change",0.0000
same,Log2(fold changes) 4-phosphopantothenate,"[4]; metabolite 4-phosphopantothenate, log2 fold change",-0.1644
same,Log2(fold changes) 5-aminopentanoic acid,"[4]; metabolite 5-aminopentanoic acid, log2 fold change",0.0000
same,Log2(fold changes) 5-methyl-THF,"[4]; metabolite 5-methyl-THF, log2 fold change",0.0000
same,Log2(fold changes) 5-phosphoribosyl-1-pyrophosphate,"[4]; metabolite 5-phosphoribosyl-1-pyrophosphate, log2 fold change",0.0000
same,Log2(fold changes) 6-phospho-D-gluconate,"[4]; metabolite 6-phospho-D-gluconate, log2 fold change",-0.0601
same,Log2(fold change) HVDD,[4]; metabolite HVDD,0.0907
same,Log2(fold change) Hydroxyisocaproic acid,[4]; metabolite Hydroxyisocaproic acid,0.0000
same,Log2(fold change) IDP,[4]; metabolite IDP,0.0000
same,Log2(fold change) IMP,[4]; metabolite IMP,-0.0368
same,Log2(fold change) Inositol,[4]; metabolite Inositol,0.0000
same,Log2(fold change) Isopentyl-PP,[4]; metabolite Isopentyl-PP,-0.3198
same,Log2(fold change) L-arginino-succinate,[4]; metabolite L-arginino-succinate,0.0258
same,Log2(fold change) LD,[4]; metabolite LD,0.2379
same,Log2(fold change) Myristoyl/tetradecanoyl-CoA,[4]; metabolite Myristoyl/tetradecanoyl-CoA,0.0000
same,Log2(fold change) N-Acetyl-L-alanine,[4]; metabolite N-Acetyl-L-alanine,0.0194
same,Log2(fold change) N-acetyl-L-ornithine,[4]; metabolite N-acetyl-L-ornithine,-0.1313
same,Log2(fold change) N-acetyl-glucosamine-1/6-phosphate,[4]; metabolite N-acetyl-glucosamine-1/6-phosphate,-0.1343
same,Log2(fold change) N-acetyl-glutamate,[4]; metabolite N-acetyl-glutamate,-0.1472
same,Log2(fold change) N-acetyl-glutamine,[4]; metabolite N-acetyl-glutamine,0.0192
same,Log2(fold change) N-carbamoyl-L-aspartate,[4]; metabolite N-carbamoyl-L-aspartate,-0.1451
same,Log2(fold change) NAD+,[4]; metabolite NAD+,-0.0175
same,Log2(fold change) NADH,[4]; metabolite NADH,-0.2763
same,Log2(fold change) NADP+,[4]; metabolite NADP+,0.0809
same,Log2(fold change) NADPH,[4]; metabolite NADPH,-0.4301
same,Log2(fold change) O-acetyl-L-serine,[4]; metabolite O-acetyl-L-serine,-0.0735
same,Log2(fold change) Octoluse 8/1P,[4]; metabolite Octoluse 8/1P,-0.1460
same,Log2(fold change) Octoluse Bisphosphate,[4]; metabolite Octoluse Bisphosphate,-0.0903
same,Log2(fold change) PD,[4]; metabolite PD,-0.0797
same,Log2(fold change) PE,[4]; metabolite PE,-0.0211
same,Log2(fold change) PEE,[4]; metabolite PEE,0.0917
same,Log2(fold change) PEEK,[4]; metabolite PEEK,0.1721
same,Log2(fold change) PVNF,[4]; metabolite PVNF,0.1648
same,Log2(fold change) Pyroglutamic acid,[4]; metabolite Pyroglutamic acid,-0.1915
same,Log2(fold change) Pyrophosphate,[4]; metabolite Pyrophosphate,0.0000
same,Log2(fold change) Ribose-5-phosphate,[4]; metabolite Ribose-5-phosphate,-0.1384
same,Log2(fold change) S-adenosyl-L-homocysteine,[4]; metabolite S-adenosyl-L-homocysteine,0.0407
same,Log2(fold change) S-adenosyl-L-methioninamine,[4]; metabolite S-adenosyl-L-methioninamine,-0.3534
same,Log2(fold change) S-adenosyl-L-methionine,[4]; metabolite S-adenosyl-L-methionine,0.0000
same,Log2(fold change) S-methyl-5'-thioadenosine,[4]; metabolite S-methyl-5'-thioadenosine,0.0820
same,Log2(fold change) SD,[4]; metabolite SD,-0.1003
same,Log2(fold change) SDL,[4]; metabolite SDL,0.0000
same,Log2(fold change) SID,[4]; metabolite SID,0.1202
same,Log2(fold change) Sedoheptulose bisphosphate,[4]; metabolite Sedoheptulose bisphosphate,-0.2322
same,Log2(fold change) Thiamine pyrophosphate,[4]; metabolite Thiamine pyrophosphate,0.0281
same,Log2(fold changes) UDP-D-glucose,"[4]; metabolite UDP-D-glucose, log2 fold change",-0.0394
same,Log2(fold changes) UDP-D-glucuronate,"[4]; metabolite UDP-D-glucuronate, log2 fold change",-0.0296
same,Log2(fold changes) UDP-N-acetyl-glucosamine,"[4]; metabolite UDP-N-acetyl-glucosamine, log2 fold change",-0.1021
same,Log2(fold changes) UDP,"[4]; metabolite UDP, log2 fold change",-0.2552
same,Log2(fold changes) UMP,"[4]; metabolite UMP, log2 fold change",-0.1084
same,Log2(fold changes) UTP,"[4]; metabolite UTP, log2 fold change",0.0000
same,Log2(fold change) hydroxyphenylpyruvate,[4]; metabolite hydroxyphenylpyruvate,0.0000
same,Log2(fold change) hydroxyproline/Aminolevulinate,[4]; metabolite hydroxyproline/Aminolevulinate,-0.1121
same,Log2(fold change) hypoxanthine,[4]; metabolite hypoxanthine,-0.1075
same,Log2(fold change) indole,[4]; metabolite indole,0.0000
same,Log2(fold change) inosine,[4]; metabolite inosine,0.0076
same,Log2(fold change) isoleucine,[4]; metabolite isoleucine,0.0000
same,Log2(fold change) lactate,[4]; metabolite lactate,-0.1204
same,Log2(fold change) leucine,[4]; metabolite leucine,0.0000
same,Log2(fold change) lysine,[4]; metabolite lysine,-0.3554
same,Log2(fold change) malate,[4]; metabolite malate,-0.1053
same,Log2(fold change) maleic acid,[4]; metabolite maleic acid,-0.1158
same,Log2(fold change) methionine,[4]; metabolite methionine,-0.0422
same,Log2(fold change) myo-inositol,[4]; metabolite myo-inositol,-0.1497
same,Log2(fold change) nicotinamide mononucleotide,[4]; metabolite nicotinamide mononucleotide,0.0424
same,Log2(fold change) nicotinate,[4]; metabolite nicotinate,-0.2143
same,Log2(fold change) ornithine,[4]; metabolite ornithine,0.2780
same,Log2(fold change) orotate,[4]; metabolite orotate,-0.3359
same,Log2(fold change) orotidine-5'-phosphate,[4]; metabolite orotidine-5'-phosphate,-0.1978
same,Log2(fold change) oxaloacetate,[4]; metabolite oxaloacetate,-0.2404
same,Log2(fold change) p-aminobenzoate,[4]; metabolite p-aminobenzoate,0.0000
same,Log2(fold change) p-hydroxybenzoate,[4]; metabolite p-hydroxybenzoate,0.0000
same,Log2(fold change) pantothenate,[4]; metabolite pantothenate,-0.0579
same,Log2(fold change) phenylalanine,[4]; metabolite phenylalanine,-0.1115
same,Log2(fold change) phenylpyruvate,[4]; metabolite phenylpyruvate,0.0000
same,Log2(fold change) phosphoenolpyruvate,[4]; metabolite phosphoenolpyruvate,0.0011
same,Log2(fold change) prephenate,[4]; metabolite prephenate,-0.0728
same,Log2(fold change) proline,[4]; metabolite proline,-0.1132
same,Log2(fold change) pyridoxine,[4]; metabolite pyridoxine,0.1122
same,Log2(fold change) pyruvate,[4]; metabolite pyruvate,-0.1845
same,Log2(fold change) riboflavin,[4]; metabolite riboflavin,0.2197
same,Log2(fold change) ribose,[4]; metabolite ribose,-0.0488
same,Log2(fold change) ribose-phosphate,[4]; metabolite ribose-phosphate,-0.3090
same,Log2(fold change) ribulose-5-phosphate,[4]; metabolite ribulose-5-phosphate,-0.1779
same,Log2(fold change) serine,[4]; metabolite serine,-0.0132
same,Log2(fold change) sn-glycerol-3-phosphate,[4]; metabolite sn-glycerol-3-phosphate,-0.0322
same,Log2(fold change) succinate/Methylmalonic acid,[4]; metabolite succinate/Methylmalonic acid,0.0214
same,Log2(fold change) succinyl-CoA/methylmalonyl-CoA,[4]; metabolite succinyl-CoA/methylmalonyl-CoA,0.0000
same,Log2(fold change) taurine,[4]; metabolite taurine,-0.5626
same,Log2(fold change) thiamine,[4]; metabolite thiamine,-0.2223
same,Log2(fold change) threonine/homoserine,[4]; metabolite threonine/homoserine,-0.0861
same,Log2(fold change) thymidine,[4]; metabolite thymidine,0.0000
same,Log2(fold changes) thymine,"[4]; metabolite thymine, log2 fold change",0.0000
same,Log2(fold changes) trehalose-6-Phosphate,"[4]; metabolite trehalose-6-Phosphate, log2 fold change",0.0000
same,Log2(fold changes) tryptophan,"[4]; metabolite tryptophan, log2 fold change",-0.3649
same,Log2(fold changes) tyrosine,"[4]; metabolite tyrosine, log2 fold change",-0.0724
same,Log2(fold changes) uridine,"[4]; metabolite uridine, log2 fold change",0.0000
same,pIC50,[2],7.51
same,Ratio lowest IC50 8hr/IC50 72hr,[3]; 3D7-A10,2.0
same,pIC50,"[3]; 3D7, read-out: Early rings Mean IC50 (IC50^8h), 8-h exposure 0–8 hr, 3D7-A10, survival at 60 h",5.93
same,pIC50,"[3]; 3D7, read-out: Early trophozoites Mean IC50 (IC50^8h), 8-h exposure 16–24 hr, 3D7-A10, survival at 60 h",7.20
same,pIC50,"[3]; 3D7, read-out: Late rings Mean IC50 (IC50^8h), 8-h exposure 8–16 hr, 3D7-A10, survival at 60 h",6.57
same,pIC50,"[3]; 3D7, read-out: Late trophozoites Mean IC50 (IC50^8h), 8-h exposure 24–32 hr, 3D7-A10, survival at 60 h",6.84
same,pIC50,"[3]; 3D7, read-out: Schizonts Mean IC50 (IC50^8h), 8-h exposure 32–40 hr, 3D7-A10, survival at 60 h",5.78
same,IC50^8h relative to IC50^72h value,[3]; most susceptible stages,2 fold
same,Stage of peak activity (Figure 6),[3]; period when the parasite was most susceptible (lowest IC50^8h),early and late trophozoites
same,Peak Activity (Table S1),[3]; stage(s) with the lowest IC50^8h,Trophs
